US7514529B2, “Peptide mimotopes of lipooligosaccharide from nontypeable Haemophilus influenzae as vaccines” (The United States of America as represented by the …, priority 2003, dated 2009)

System: target rabbit anti-LOS antibody
Experiment: Peptide ELISA (NucleoLink strips): synthetic peptides binding the target anti-LOS antibody
Settings: for Binding reactivity (OD405): 5 μg peptide coupled to strip, 0.4 μg/well target antibody, average of duplicates; for Binding reactivity of synthetic peptides to target anti-LOS antibody (in words): peptide-coated ELISA
Method: Four peptides were synthesized with a spacer (GGGS) at each C-terminus (Genemed Synthesis, Inc., San Francisco, Calif.). Binding reactivity of the synthetic peptides to the target anti-LOS antibody was tested with a peptide ELISA using Nunc NucleoLink™ Strips (Fisher Scientific, Pittsburgh, Pa.). Following the instructions of the product with modifications, the strips were coated covalently with its amino groups to the C-terminal carboxyl groups of the synthetic peptides by a coupling reagent, [1-Ethyl-3-(3-dimethylaminopropyl) carbodiimide HCl] (EDC, Pierce). Briefly, peptides and 0.1 M 1-methyl-imidazole (Meim) (Sigma-Aldrich) at pH 7 were pre-cooled on ice, and a 100 μl of individual peptide solution with 5 μg of peptide in 10 mM MeIm was prepared in a well of strips on ice. This peptide solution (75 μl) was mixed with 25 μl of freshly prepared 0.2 M EDC in 10 mM MeIm in another well of the strips. The strips were sealed and incubated at 50° C. for 5 h. After removing the reaction mixture, the strips were soaked with washing buffer (freshly prepared 0.25% SDS in 0.4 N NaOH and warmed at 50° C.) for 5 min and emptied. This step was performed for three times, followed by another three washings without the 5-min soaking. After removing the washing buffer, the strips was washed thoroughly with deionized water. The following steps were the same as described in the LOS ELISA (Gu et al. 1996 Infect Immun 64:4047). After blocking with 1% BSA in PBS, the target anti-LOS antibody was added in the amount of 0.4 μg/well followed by a goat anti-rabbit IgG alkaline phosphatase conjugate. The binding reactivity of the synthetic peptides to the target anti-LOS antibody was evaluated by OD405 values at 30 min after adding a substrate.

Sequence | Binding reactivity (OD405) | Binding reactivity of synthetic peptides to target anti-LOS antibody (in words)
TLAHHKKPWILR [Peptide 5, control peptide from an unrelated clone, reference compound] | 0.33 OD405 | –
NMMNYIMDPRTH [Peptide 2] | 2.52 OD405 | higher binding reactivity
NMMRFTSQPPNN [Peptide 1] | 0.40 OD405 | did not show good antigenic mimic of the LOS
NMMKYISPPIFL [Peptide 3] | 1.11 OD405 | higher binding reactivity
NMMRFTELSTPS [Peptide 4] | 0.99 OD405 | higher binding reactivity
